Test results: ChEMBL document CHEMBL1151757, “Synthesis, radiosynthesis, and biological evaluation of fluorine-18-labeled 2beta-carbo(fluoroalkoxy)-3beta-(3'-((Z)-2-haloethenyl)phenyl)nortropanes: candidate radioligands for in vivo imaging of the serotonin transporter with positron emission tomography” (J Med Chem, 2008)

Test system: not listed separately
Test: Ratio of drug uptake in pons to cerebellum in anesthetized cynomolgus monkey after 35 mins postinjection
Type: ADME, organism-based, Macaca fascicularis
Settings: in vivo

| Structure (SMILES) | Ratio |
| --- | --- |
| O=C(OCCC[18F])C1C2CCC(CC1c1cccc(/C=C\Br)c1)N2 (stereo not drawn) | 0.9 |

Test system: not listed separately
Test: Ratio of drug uptake in pons to cerebellum in anesthetized cynomolgus monkey after 125 mins postinjection
Type: ADME, organism-based, Macaca fascicularis
Settings: in vivo

| Structure (SMILES) | Ratio |
| --- | --- |
| O=C(OCCC[18F])C1C2CCC(CC1c1cccc(/C=C\Br)c1)N2 (stereo not drawn) | 1.4 |

Test system: not listed separately
Test: Ratio of drug uptake in medulla to cerebellum in anesthetized cynomolgus monkey after 85 mins postinjection
Type: ADME, organism-based, Macaca fascicularis
Settings: in vivo

| Structure (SMILES) | Ratio |
| --- | --- |
| O=C(OCCC[18F])C1C2CCC(CC1c1cccc(/C=C\Br)c1)N2 (stereo not drawn) | 1.4 |

Test system: not listed separately
Test: Drug uptake in anesthetized cynomolgus monkey brain occipital lobe after 1.5 mins postinjection
Type: ADME, organism-based, Macaca fascicularis
Settings: in vivo, 0.025 h

| Structure (SMILES) | Drug uptake |
| --- | --- |
| O=C(OCCC[18F])C1C2CCC(CC1c1cccc(/C=C\Br)c1)N2 (stereo not drawn) | 0.3 |

Test system: not listed separately
Test: Drug uptake in anesthetized cynomolgus monkey brain occipital lobe after 55 mins postinjection
Type: ADME, organism-based, Macaca fascicularis
Settings: in vivo

| Structure (SMILES) | Drug uptake |
| --- | --- |
| O=C(OCCC[18F])C1C2CCC(CC1c1cccc(/C=C\Br)c1)N2 (stereo not drawn) | 4.59 |

Test system: not listed separately
Test: Drug uptake in anesthetized cynomolgus monkey brain occipital lobe after 85 mins postinjection
Type: ADME, organism-based, Macaca fascicularis
Settings: in vivo

| Structure (SMILES) | Drug uptake |
| --- | --- |
| O=C(OCCC[18F])C1C2CCC(CC1c1cccc(/C=C\Br)c1)N2 (stereo not drawn) | 4.19 |

Test system: not listed separately
Test: Drug uptake in anesthetized cynomolgus monkey brain occipital lobe after 95 mins postinjection
Type: ADME, organism-based, Macaca fascicularis
Settings: in vivo

| Structure (SMILES) | Drug uptake |
| --- | --- |
| O=C(OCCC[18F])C1C2CCC(CC1c1cccc(/C=C\Br)c1)N2 (stereo not drawn) | 4.16 |

Test system: not listed separately
Test: Drug uptake in anesthetized cynomolgus monkey brain occipital lobe after 105 mins postinjection
Type: ADME, organism-based, Macaca fascicularis
Settings: in vivo, 1.75 h

| Structure (SMILES) | Drug uptake |
| --- | --- |
| O=C(OCCC[18F])C1C2CCC(CC1c1cccc(/C=C\Br)c1)N2 (stereo not drawn) | 3.91 |

Test system: not listed separately
Test: Drug uptake in anesthetized cynomolgus monkey brain occipital lobe after 215 mins postinjection
Type: ADME, organism-based, Macaca fascicularis
Settings: in vivo

| Structure (SMILES) | Drug uptake |
| --- | --- |
| O=C(OCCC[18F])C1C2CCC(CC1c1cccc(/C=C\Br)c1)N2 (stereo not drawn) | 2.7 |

Test system: not listed separately
Test: Drug uptake in anesthetized cynomolgus monkey brain frontal lobe after 0.5 mins postinjection
Type: ADME, organism-based, Macaca fascicularis
Settings: in vivo

| Structure (SMILES) | Drug uptake |
| --- | --- |
| O=C(OCCC[18F])C1C2CCC(CC1c1cccc(/C=C\Br)c1)N2 (stereo not drawn) | 0.01 |

Test system: not listed separately
Test: Drug uptake in anesthetized cynomolgus monkey brain frontal lobe after 2.5 mins postinjection
Type: ADME, organism-based, Macaca fascicularis
Settings: in vivo

| Structure (SMILES) | Drug uptake |
| --- | --- |
| O=C(OCCC[18F])C1C2CCC(CC1c1cccc(/C=C\Br)c1)N2 (stereo not drawn) | 0.79 |

Test system: not listed separately
Test: Drug uptake in anesthetized cynomolgus monkey brain frontal lobe after 3.5 mins postinjection
Type: ADME, organism-based, Macaca fascicularis
Settings: in vivo

| Structure (SMILES) | Drug uptake |
| --- | --- |
| O=C(OCCC[18F])C1C2CCC(CC1c1cccc(/C=C\Br)c1)N2 (stereo not drawn) | 1.47 |

Test system: not listed separately
Test: Drug uptake in anesthetized cynomolgus monkey brain frontal lobe after 15.5 mins postinjection
Type: ADME, organism-based, Macaca fascicularis
Settings: in vivo

| Structure (SMILES) | Drug uptake |
| --- | --- |
| O=C(OCCC[18F])C1C2CCC(CC1c1cccc(/C=C\Br)c1)N2 (stereo not drawn) | 3.38 |

Test system: not listed separately
Test: Drug uptake in anesthetized cynomolgus monkey brain frontal lobe after 35 mins postinjection
Type: ADME, organism-based, Macaca fascicularis
Settings: in vivo

| Structure (SMILES) | Drug uptake |
| --- | --- |
| O=C(OCCC[18F])C1C2CCC(CC1c1cccc(/C=C\Br)c1)N2 (stereo not drawn) | 3.74 |

Test system: not listed separately
Test: Drug uptake in anesthetized cynomolgus monkey brain frontal lobe after 45 mins postinjection
Type: ADME, organism-based, Macaca fascicularis
Settings: in vivo, 0.75 h

| Structure (SMILES) | Drug uptake |
| --- | --- |
| O=C(OCCC[18F])C1C2CCC(CC1c1cccc(/C=C\Br)c1)N2 (stereo not drawn) | 3.72 |

Test system: not listed separately
Test: Drug uptake in anesthetized cynomolgus monkey brain frontal lobe after 75 mins postinjection
Type: ADME, organism-based, Macaca fascicularis
Settings: in vivo, 1.25 h

| Structure (SMILES) | Drug uptake |
| --- | --- |
| O=C(OCCC[18F])C1C2CCC(CC1c1cccc(/C=C\Br)c1)N2 (stereo not drawn) | 3.49 |

Test system: not listed separately
Test: Drug uptake in anesthetized cynomolgus monkey brain frontal lobe after 115 mins postinjection
Type: ADME, organism-based, Macaca fascicularis
Settings: in vivo

| Structure (SMILES) | Drug uptake |
| --- | --- |
| O=C(OCCC[18F])C1C2CCC(CC1c1cccc(/C=C\Br)c1)N2 (stereo not drawn) | 3.2 |

Test system: not listed separately
Test: Drug uptake in anesthetized cynomolgus monkey brain frontal lobe after 155 mins postinjection
Type: ADME, organism-based, Macaca fascicularis
Settings: in vivo

| Structure (SMILES) | Drug uptake |
| --- | --- |
| O=C(OCCC[18F])C1C2CCC(CC1c1cccc(/C=C\Br)c1)N2 (stereo not drawn) | 2.65 |

Test system: not listed separately
Test: Ratio of drug uptake in midbrain to cerebellum in anesthetized cynomolgus monkey after 235 mins postinjection
Type: ADME, organism-based, Macaca fascicularis
Settings: in vivo

| Structure (SMILES) | Ratio |
| --- | --- |
| O=C(OCCC[18F])C1C2CCC(CC1c1cccc(/C=C\Br)c1)N2 (stereo not drawn) | 2.3 |

Test system: not listed separately
Test: Ratio of drug uptake in pons to cerebellum in anesthetized cynomolgus monkey after 0.5 mins postinjection
Type: ADME, organism-based, Macaca fascicularis
Settings: in vivo

| Structure (SMILES) | Ratio |
| --- | --- |
| O=C(OCCC[18F])C1C2CCC(CC1c1cccc(/C=C\Br)c1)N2 (stereo not drawn) | 1.6 |

Test system: Putamen
Test: Drug uptake in anesthetized cynomolgus monkey brain putamen after 215 mins postinjection
Type: ADME, organism-based, Macaca fascicularis
Settings: in vivo

| Structure (SMILES) | Drug uptake |
| --- | --- |
| O=C(OCCC[18F])C1C2CCC(CC1c1cccc(/C=C\Br)c1)N2 (stereo not drawn) | 3.51 |

Test system: not listed separately
Test: Ratio of drug uptake in occipital lobe to cerebellum in anesthetized cynomolgus monkey after 235 mins postinjection
Type: ADME, organism-based, Macaca fascicularis
Settings: in vivo

| Structure (SMILES) | Ratio |
| --- | --- |
| O=C(OCCC[18F])C1C2CCC(CC1c1cccc(/C=C\Br)c1)N2 (stereo not drawn) | 1.4 |

Test system: Midbrain
Test: Drug uptake in anesthetized cynomolgus monkey brain midbrain after 145 mins postinjection
Type: ADME, organism-based, Macaca fascicularis
Settings: in vivo

| Structure (SMILES) | Drug uptake |
| --- | --- |
| O=C(OCCC[18F])C1C2CCC(CC1c1cccc(/C=C\Br)c1)N2 (stereo not drawn) | 5.18 |

Test system: Midbrain
Test: Drug uptake in anesthetized cynomolgus monkey brain midbrain after 175 mins postinjection
Type: ADME, organism-based, Macaca fascicularis
Settings: in vivo

| Structure (SMILES) | Drug uptake |
| --- | --- |
| O=C(OCCC[18F])C1C2CCC(CC1c1cccc(/C=C\Br)c1)N2 (stereo not drawn) | 4.91 |

Test system: Pons
Test: Drug uptake in anesthetized cynomolgus monkey brain pons after 2.5 mins postinjection
Type: ADME, organism-based, Macaca fascicularis
Settings: in vivo

| Structure (SMILES) | Drug uptake |
| --- | --- |
| O=C(OCCC[18F])C1C2CCC(CC1c1cccc(/C=C\Br)c1)N2 (stereo not drawn) | 0.9 |

Test system: Pons
Test: Drug uptake in anesthetized cynomolgus monkey brain pons after 22.5 mins postinjection
Type: ADME, organism-based, Macaca fascicularis
Settings: in vivo, 0.375 h

| Structure (SMILES) | Drug uptake |
| --- | --- |
| O=C(OCCC[18F])C1C2CCC(CC1c1cccc(/C=C\Br)c1)N2 (stereo not drawn) | 4.89 |

Test system: Pons
Test: Drug uptake in anesthetized cynomolgus monkey brain pons after 35 mins postinjection
Type: ADME, organism-based, Macaca fascicularis
Settings: in vivo

| Structure (SMILES) | Drug uptake |
| --- | --- |
| O=C(OCCC[18F])C1C2CCC(CC1c1cccc(/C=C\Br)c1)N2 (stereo not drawn) | 5.08 |

Test system: Pons
Test: Drug uptake in anesthetized cynomolgus monkey brain pons after 55 mins postinjection
Type: ADME, organism-based, Macaca fascicularis
Settings: in vivo

| Structure (SMILES) | Drug uptake |
| --- | --- |
| O=C(OCCC[18F])C1C2CCC(CC1c1cccc(/C=C\Br)c1)N2 (stereo not drawn) | 4.72 |

Test system: not listed separately
Test: Ratio of drug uptake in caudate to cerebellum in anesthetized cynomolgus monkey after 0.5 mins postinjection
Type: ADME, organism-based, Macaca fascicularis
Settings: in vivo

| Structure (SMILES) | Ratio |
| --- | --- |
| O=C(OCCC[18F])C1C2CCC(CC1c1cccc(/C=C\Br)c1)N2 (stereo not drawn) | 0.9 |

Test system: not listed separately
Test: Ratio of drug uptake in caudate to cerebellum in anesthetized cynomolgus monkey after 55 mins postinjection
Type: ADME, organism-based, Macaca fascicularis
Settings: in vivo

| Structure (SMILES) | Ratio |
| --- | --- |
| O=C(OCCC[18F])C1C2CCC(CC1c1cccc(/C=C\Br)c1)N2 (stereo not drawn) | 1.1 |

Test system: Medulla
Test: Drug uptake in anesthetized cynomolgus monkey brain medulla after 2.5 mins postinjection
Type: ADME, organism-based, Macaca fascicularis
Settings: in vivo

| Structure (SMILES) | Drug uptake |
| --- | --- |
| O=C(OCCC[18F])C1C2CCC(CC1c1cccc(/C=C\Br)c1)N2 (stereo not drawn) | 1.62 |

Test system: Medulla
Test: Drug uptake in anesthetized cynomolgus monkey brain medulla after 15.5 mins postinjection
Type: ADME, organism-based, Macaca fascicularis
Settings: in vivo

| Structure (SMILES) | Drug uptake |
| --- | --- |
| O=C(OCCC[18F])C1C2CCC(CC1c1cccc(/C=C\Br)c1)N2 (stereo not drawn) | 5.77 |

Test system: Medulla
Test: Drug uptake in anesthetized cynomolgus monkey brain medulla after 22.5 mins postinjection
Type: ADME, organism-based, Macaca fascicularis
Settings: in vivo, 0.375 h

| Structure (SMILES) | Drug uptake |
| --- | --- |
| O=C(OCCC[18F])C1C2CCC(CC1c1cccc(/C=C\Br)c1)N2 (stereo not drawn) | 6.29 |
